Reference: patent US20060100105A1, “Agents containing carboxylic acid and the use of the same in plant cultivation” (priority 2002, published 2006)

System: Winter oilseed rape (cv. Pronto)
Experiment: Shoot elongation in winter oilseed rape
Format: in vivo
Details: active ingredient alone
Procedure: The tank mixers employed in Example 1 are prepared by mixing an emulsion concentrate with a metconazole content of 90 g/l and an aqueous concentrate with mepiquat chloride content of 600 g/l using a magnetic stirrer (experiment T1).
Winter oilseed rape (cv. Pronto) was sown in autumn and approximately one month later treated as specified in Table 3. Shoot elongation and root development were assessed a few weeks later. The elongation results are compiled in Table 3.

| SMILES | shortening effect (in words) |
| --- | --- |
| CC1(C)CCC(Cc2ccc(Cl)cc2)C1(O)Cn1cncn1 (centres unmarked) [Metconazole, metconazole] | very pronounced |
| C[N+]1(C)CCCCC1.[Cl-] [mepiquat-chloride, N,N-dimethylpiperidinium chloride] | only results in some degree of shortening at scoring date 2 |
